Values joined by “and” are separate entries in the source; they are usually repeats but may differ in a detail not shown here. Identical values can stand only once.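 In this assay, cells in 96-well plates receive the compound at five concentrations for 48 hours. Endpoints are linearly interpolated between the surrounding concentrations. At the GI50, growth is halved. TGI: total growth inhibition.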
Each molecule was assayed on SR leukemia (assay: DTP human tumour cell line panel, 48 h).
In the case of `CCOC(=O)CN1C(=O)c2ccc(NC(=O)C(=O)O)cc2S1(=O)=O`, the TGI is reported as greater than 100 µM. Molecule `COc1ccc2cc(/C=N/NC(=O)Nc3ccccc3)ccc2c1` has a TGI greater than 100 µM. `C=C(Cl)C(Br)(CCl)CCC(Br)C(C)(C)Cl` (stereo not drawn) gave a TGI of 7.28 µM. Work on `CC(O)C1(CNc2cc(Cl)nc(N)n2)CCC1` (stereo not drawn) yielded a TGI greater than 100 µM. `COC(=O)C(Cc1c[nH]c2ccccc12)NP(=O)(O)OCC1OC(n2cc(I)c(=O)[nH]c2=O)CC1O` (stereo not drawn) gave a TGI greater than 100 µM. `O=c1cnn(C/C=C/CO)c(=O)[nH]1` showed a TGI greater than 100 µM. Molecule `N#Cc1c(-c2ccc(Cl)cc2Cl)nc2[nH][nH]c(=S)n2c1=O` has a TGI greater than 100 µM.

These molecules were tested on HS 578T breast (assay: DTP human tumour cell line panel, 48 h).
For `CCOC(=O)CN1C(=O)c2ccc(NC(=O)C(=O)O)cc2S1(=O)=O`, the TGI was greater than 100 µM. Work on `COc1ccc2cc(/C=N/NC(=O)Nc3ccccc3)ccc2c1` yielded a TGI greater than 100 µM. `C=C(Cl)C(Br)(CCl)CCC(Br)C(C)(C)Cl` (stereo not drawn) gave a GI50 of 2.62 µM and a TGI greater than 27.9 µM. `CC(O)C1(CNc2cc(Cl)nc(N)n2)CCC1` (stereo not drawn) gave a TGI greater than 100 µM. Molecule `COC(=O)C(Cc1c[nH]c2ccccc12)NP(=O)(O)OCC1OC(n2cc(I)c(=O)[nH]c2=O)CC1O` (stereo not drawn) has a TGI greater than 100 µM. With `O=c1cnn(C/C=C/CO)c(=O)[nH]1` the TGI was greater than 100 µM. For `N#Cc1c(-c2ccc(Cl)cc2Cl)nc2[nH][nH]c(=S)n2c1=O`, the TGI was greater than 100 µM.

The molecules below were run on IGROV1 ovarian (assay: DTP human tumour cell line panel, 48 h).
For `CCOC(=O)CN1C(=O)c2ccc(NC(=O)C(=O)O)cc2S1(=O)=O`, the TGI was greater than 100 µM. Work on `COc1ccc2cc(/C=N/NC(=O)Nc3ccccc3)ccc2c1` yielded a TGI greater than 100 µM. In the case of `C=C(Cl)C(Br)(CCl)CCC(Br)C(C)(C)Cl` (stereo not drawn), the GI50 is reported as 2.13 µM and the TGI is reported as 4.16 µM. `CC(O)C1(CNc2cc(Cl)nc(N)n2)CCC1` (stereo not drawn) showed a TGI greater than 100 µM. In the case of `COC(=O)C(Cc1c[nH]c2ccccc12)NP(=O)(O)OCC1OC(n2cc(I)c(=O)[nH]c2=O)CC1O` (stereo not drawn), the TGI is reported as greater than 100 µM. `O=c1cnn(C/C=C/CO)c(=O)[nH]1` gave a TGI greater than 100 µM. For `N#Cc1c(-c2ccc(Cl)cc2Cl)nc2[nH][nH]c(=S)n2c1=O`, the TGI was greater than 100 µM.

These molecules were tested on M14 melanoma (assay: DTP human tumour cell line panel, 48 h).
Work on `CCOC(=O)CN1C(=O)c2ccc(NC(=O)C(=O)O)cc2S1(=O)=O` yielded a TGI greater than 100 µM. `COc1ccc2cc(/C=N/NC(=O)Nc3ccccc3)ccc2c1` showed a TGI greater than 100 µM. For `C=C(Cl)C(Br)(CCl)CCC(Br)C(C)(C)Cl` (stereo not drawn), the GI50 was 2.01 µM and the TGI was 7.74 µM and 4.9 µM. `COC(=O)C(Cc1c[nH]c2ccccc12)NP(=O)(O)OCC1OC(n2cc(I)c(=O)[nH]c2=O)CC1O` (stereo not drawn) gave a TGI greater than 100 µM. Molecule `O=c1cnn(C/C=C/CO)c(=O)[nH]1` has a TGI greater than 100 µM. With `N#Cc1c(-c2ccc(Cl)cc2Cl)nc2[nH][nH]c(=S)n2c1=O` the TGI was greater than 100 µM.

Each molecule was assayed on A549 NSCLC (assay: DTP human tumour cell line panel, 48 h).
`CCOC(=O)CN1C(=O)c2ccc(NC(=O)C(=O)O)cc2S1(=O)=O` was tested, and the TGI was greater than 100 µM. `C=C(Cl)C(Br)(CCl)CCC(Br)C(C)(C)Cl` (stereo not drawn) gave a TGI of 38.1 µM. `CC(O)C1(CNc2cc(Cl)nc(N)n2)CCC1` (stereo not drawn) showed a TGI greater than 100 µM. In the case of `COC(=O)C(Cc1c[nH]c2ccccc12)NP(=O)(O)OCC1OC(n2cc(I)c(=O)[nH]c2=O)CC1O` (stereo not drawn), the TGI is reported as greater than 100 µM. `O=c1cnn(C/C=C/CO)c(=O)[nH]1` gave a TGI greater than 100 µM. Molecule `N#Cc1c(-c2ccc(Cl)cc2Cl)nc2[nH][nH]c(=S)n2c1=O` has a TGI greater than 100 µM.

These molecules were tested on HCT-15 colon (assay: DTP human tumour cell line panel, 48 h).
With `CCOC(=O)CN1C(=O)c2ccc(NC(=O)C(=O)O)cc2S1(=O)=O` the TGI was greater than 100 µM. For `COc1ccc2cc(/C=N/NC(=O)Nc3ccccc3)ccc2c1`, the TGI was greater than 100 µM. With `C=C(Cl)C(Br)(CCl)CCC(Br)C(C)(C)Cl` (stereo not drawn) the GI50 was 2.01 µM and the TGI was 9.57 µM and 3.94 µM. In the case of `CC(O)C1(CNc2cc(Cl)nc(N)n2)CCC1` (stereo not drawn), the TGI is reported as greater than 100 µM. `COC(=O)C(Cc1c[nH]c2ccccc12)NP(=O)(O)OCC1OC(n2cc(I)c(=O)[nH]c2=O)CC1O` (stereo not drawn) was tested, and the TGI was greater than 100 µM. Molecule `O=c1cnn(C/C=C/CO)c(=O)[nH]1` has a TGI greater than 100 µM. `N#Cc1c(-c2ccc(Cl)cc2Cl)nc2[nH][nH]c(=S)n2c1=O` was tested, and the TGI was greater than 100 µM.

Each molecule was assayed on K-562 leukemia (assay: DTP human tumour cell line panel, 48 h).
`CCOC(=O)CN1C(=O)c2ccc(NC(=O)C(=O)O)cc2S1(=O)=O` gave a TGI greater than 100 µM. Molecule `COc1ccc2cc(/C=N/NC(=O)Nc3ccccc3)ccc2c1` has a TGI greater than 100 µM. For `C=C(Cl)C(Br)(CCl)CCC(Br)C(C)(C)Cl` (stereo not drawn), the GI50 was 7.84 µM and the TGI was 9.43 µM and 40.4 µM. For `CC(O)C1(CNc2cc(Cl)nc(N)n2)CCC1` (stereo not drawn), the TGI was greater than 100 µM. `COC(=O)C(Cc1c[nH]c2ccccc12)NP(=O)(O)OCC1OC(n2cc(I)c(=O)[nH]c2=O)CC1O` (stereo not drawn) showed a TGI greater than 100 µM. `O=c1cnn(C/C=C/CO)c(=O)[nH]1` showed a TGI greater than 100 µM.

These molecules were tested on HL-60(TB) leukemia (assay: DTP human tumour cell line panel, 48 h).
Molecule `CCOC(=O)CN1C(=O)c2ccc(NC(=O)C(=O)O)cc2S1(=O)=O` has a TGI greater than 100 µM. With `COc1ccc2cc(/C=N/NC(=O)Nc3ccccc3)ccc2c1` the TGI was greater than 100 µM. In the case of `C=C(Cl)C(Br)(CCl)CCC(Br)C(C)(C)Cl` (stereo not drawn), the TGI is reported as 5.19 µM. `CC(O)C1(CNc2cc(Cl)nc(N)n2)CCC1` (stereo not drawn) was tested, and the TGI was greater than 100 µM. Work on `COC(=O)C(Cc1c[nH]c2ccccc12)NP(=O)(O)OCC1OC(n2cc(I)c(=O)[nH]c2=O)CC1O` (stereo not drawn) yielded a TGI greater than 100 µM. `O=c1cnn(C/C=C/CO)c(=O)[nH]1` gave a TGI greater than 100 µM. `N#Cc1c(-c2ccc(Cl)cc2Cl)nc2[nH][nH]c(=S)n2c1=O` gave a TGI greater than 100 µM.

The molecules below were run on OVCAR-8 ovarian (assay: DTP human tumour cell line panel, 48 h).
Work on `CCOC(=O)CN1C(=O)c2ccc(NC(=O)C(=O)O)cc2S1(=O)=O` yielded a TGI greater than 100 µM. `COc1ccc2cc(/C=N/NC(=O)Nc3ccccc3)ccc2c1` showed a TGI greater than 100 µM. For `C=C(Cl)C(Br)(CCl)CCC(Br)C(C)(C)Cl` (stereo not drawn), the GI50 was 2.26 µM and the TGI was 5.69 µM. Molecule `CC(O)C1(CNc2cc(Cl)nc(N)n2)CCC1` (stereo not drawn) has a TGI greater than 100 µM. `COC(=O)C(Cc1c[nH]c2ccccc12)NP(=O)(O)OCC1OC(n2cc(I)c(=O)[nH]c2=O)CC1O` (stereo not drawn) was tested, and the TGI was greater than 100 µM. Work on `O=c1cnn(C/C=C/CO)c(=O)[nH]1` yielded a TGI greater than 100 µM. `N#Cc1c(-c2ccc(Cl)cc2Cl)nc2[nH][nH]c(=S)n2c1=O` showed a TGI greater than 100 µM.

What follows are molecules tested on SW-620 colon (assay: DTP human tumour cell line panel, 48 h).
`CCOC(=O)CN1C(=O)c2ccc(NC(=O)C(=O)O)cc2S1(=O)=O` gave a TGI greater than 100 µM. With `COc1ccc2cc(/C=N/NC(=O)Nc3ccccc3)ccc2c1` the TGI was greater than 100 µM. With `C=C(Cl)C(Br)(CCl)CCC(Br)C(C)(C)Cl` (stereo not drawn) the GI50 was 1.46 µM and the TGI was 4.54 µM and 3.23 µM. `CC(O)C1(CNc2cc(Cl)nc(N)n2)CCC1` (stereo not drawn) showed a TGI greater than 100 µM. Molecule `COC(=O)C(Cc1c[nH]c2ccccc12)NP(=O)(O)OCC1OC(n2cc(I)c(=O)[nH]c2=O)CC1O` (stereo not drawn) has a TGI greater than 100 µM. `O=c1cnn(C/C=C/CO)c(=O)[nH]1` was tested, and the TGI was greater than 100 µM. In the case of `N#Cc1c(-c2ccc(Cl)cc2Cl)nc2[nH][nH]c(=S)n2c1=O`, the TGI is reported as greater than 100 µM.

Each molecule was assayed on COLO 205 colon (assay: DTP human tumour cell line panel, 48 h).
With `CCOC(=O)CN1C(=O)c2ccc(NC(=O)C(=O)O)cc2S1(=O)=O` the TGI was greater than 100 µM. `COc1ccc2cc(/C=N/NC(=O)Nc3ccccc3)ccc2c1` was tested, and the TGI was greater than 100 µM. In the case of `C=C(Cl)C(Br)(CCl)CCC(Br)C(C)(C)Cl` (stereo not drawn), the GI50 is reported as 2.13 µM and the TGI is reported as 4.64 µM. `COC(=O)C(Cc1c[nH]c2ccccc12)NP(=O)(O)OCC1OC(n2cc(I)c(=O)[nH]c2=O)CC1O` (stereo not drawn) gave a TGI greater than 100 µM. Work on `O=c1cnn(C/C=C/CO)c(=O)[nH]1` yielded a TGI greater than 100 µM. For `N#Cc1c(-c2ccc(Cl)cc2Cl)nc2[nH][nH]c(=S)n2c1=O`, the TGI was greater than 100 µM.

The molecules below were run on 786-0 renal (assay: DTP human tumour cell line panel, 48 h).
For `CCOC(=O)CN1C(=O)c2ccc(NC(=O)C(=O)O)cc2S1(=O)=O`, the TGI was greater than 100 µM. `C=C(Cl)C(Br)(CCl)CCC(Br)C(C)(C)Cl` (stereo not drawn) was tested, and the GI50 was 1.67 µM and the TGI was 3.73 µM and 3.21 µM. With `CC(O)C1(CNc2cc(Cl)nc(N)n2)CCC1` (stereo not drawn) the TGI was greater than 100 µM. `COC(=O)C(Cc1c[nH]c2ccccc12)NP(=O)(O)OCC1OC(n2cc(I)c(=O)[nH]c2=O)CC1O` (stereo not drawn) showed a TGI greater than 100 µM. For `N#Cc1c(-c2ccc(Cl)cc2Cl)nc2[nH][nH]c(=S)n2c1=O`, the TGI was greater than 100 µM.

The molecules below were run on SNB-19 CNS (assay: DTP human tumour cell line panel, 48 h).
For `CCOC(=O)CN1C(=O)c2ccc(NC(=O)C(=O)O)cc2S1(=O)=O`, the TGI was greater than 100 µM. Molecule `COc1ccc2cc(/C=N/NC(=O)Nc3ccccc3)ccc2c1` has a TGI greater than 100 µM. Molecule `C=C(Cl)C(Br)(CCl)CCC(Br)C(C)(C)Cl` (stereo not drawn) has a TGI of 8.73 µM. With `CC(O)C1(CNc2cc(Cl)nc(N)n2)CCC1` (stereo not drawn) the TGI was greater than 100 µM. Molecule `COC(=O)C(Cc1c[nH]c2ccccc12)NP(=O)(O)OCC1OC(n2cc(I)c(=O)[nH]c2=O)CC1O` (stereo not drawn) has a TGI greater than 100 µM. With `O=c1cnn(C/C=C/CO)c(=O)[nH]1` the TGI was greater than 100 µM. Molecule `N#Cc1c(-c2ccc(Cl)cc2Cl)nc2[nH][nH]c(=S)n2c1=O` has a TGI greater than 100 µM.

These molecules were tested on UACC-62 melanoma (assay: DTP human tumour cell line panel, 48 h).
For `CCOC(=O)CN1C(=O)c2ccc(NC(=O)C(=O)O)cc2S1(=O)=O`, the TGI was greater than 100 µM. For `COc1ccc2cc(/C=N/NC(=O)Nc3ccccc3)ccc2c1`, the TGI was greater than 100 µM. In the case of `C=C(Cl)C(Br)(CCl)CCC(Br)C(C)(C)Cl` (stereo not drawn), the GI50 is reported as 2.17 µM and the TGI is reported as 6.83 µM. `CC(O)C1(CNc2cc(Cl)nc(N)n2)CCC1` (stereo not drawn) gave a TGI greater than 100 µM. Work on `COC(=O)C(Cc1c[nH]c2ccccc12)NP(=O)(O)OCC1OC(n2cc(I)c(=O)[nH]c2=O)CC1O` (stereo not drawn) yielded a TGI greater than 100 µM. With `N#Cc1c(-c2ccc(Cl)cc2Cl)nc2[nH][nH]c(=S)n2c1=O` the TGI was greater than 100 µM.

What follows are molecules tested on OVCAR-5 ovarian (assay: DTP human tumour cell line panel, 48 h).
Work on `CCOC(=O)CN1C(=O)c2ccc(NC(=O)C(=O)O)cc2S1(=O)=O` yielded a TGI greater than 100 µM. Work on `COc1ccc2cc(/C=N/NC(=O)Nc3ccccc3)ccc2c1` yielded a TGI greater than 100 µM.
